# Experimental data taken from article PMC10872706 (The FEBS journal, 2023).
# “And” between values parts separate entries of the source, which are not always exact repeats. Equal values may be shown once. Read-outs that look alike come from different tables or passages of the source.
# Columns and labels:
# E. coli PdxI [1] = biological target: T1, E. coli PdxI (Escherichia coli, UniProt P25906); assay: Reactions catalysed by PdxI, discontinuous assay with HPLC quantification; assay type: biochemical
# T1 sequence (P25906 1-286): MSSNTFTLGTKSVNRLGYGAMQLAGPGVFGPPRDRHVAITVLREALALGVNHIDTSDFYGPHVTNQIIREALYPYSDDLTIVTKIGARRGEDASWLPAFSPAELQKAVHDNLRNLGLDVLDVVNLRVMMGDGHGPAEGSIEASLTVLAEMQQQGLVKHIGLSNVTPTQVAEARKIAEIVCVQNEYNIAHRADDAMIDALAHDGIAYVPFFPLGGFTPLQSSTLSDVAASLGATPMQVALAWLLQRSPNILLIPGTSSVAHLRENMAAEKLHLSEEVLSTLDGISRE
# E. coli PdxI [2] = biological target: T1, E. coli PdxI; assay: Differential scanning fluorimetry; assay type: binding; details: for effect on thermal stability (Tm) when added alone: vitamers 100 μM, NAD+ or NADH 400 μM; for effect on thermal stability (Tm) when added alone / Kd: 2 μM PdxI; for increase of thermal stability: increasing concentrations of dinucleotide; for Kd: read-out: apparent dissociation constant, from changes of Tm as a function of NADP(H) concentration, 20 mM KPi pH 7.3; for further change of Tm on adding vitamer to pre-incubated PdxI and dinucleotide: 200 μM vitamer, PL added to PdxI-NAD(P)+, PN to PdxI-NAD(P)H
# E. coli PdxI [3] = biological target: T1, E. coli PdxI; assay: Spectrophotometric kinetic characterisation of PdxI; details: for type of product inhibition with respect to NADPH: NADPH varied, PL fixed at 38 μM
# E. coli PdxI [4] = biological target: T1, E. coli PdxI; assay: Isothermal titration calorimetry; assay type: binding
# [5] = test system: E. coli pdxK, pdxY, pdxKY knock out strains; assay type: cell-based, Escherichia coli; details: M9 medium, all these strains
# [6] = test system: E. coli BW25113 pdxI knock out strain; assay type: cell-based, Escherichia coli
# E. coli BW25113 cells = assay: RT-qPCR relative expression of vitamin B6 metabolism genes; assay type: cell-based, Escherichia coli; details: 0.1 mM vitamer in M9, relative to M9 = 100%; for Expression level of pdxI: (*) P < 0.01
# [7] = test system: E. coli BW25113 wild type; assay type: cell-based, Escherichia coli
# [8] = test system: E. coli BW25113 wild type; assay: B6 vitamer levels in cell extracts by HPLC, wild type; assay type: cell-based, Escherichia coli
# PdxK = details: cited from earlier work
# [9] = test system: E. coli BW25113 pdxI knock out strain; assay type: cell-based, Escherichia coli; details: for beneficial effect of low concentrations on growth: low concentrations in M9 medium
# E. coli PdxI [10] = biological target: T1, E. coli PdxI; details: in vitro; cited from earlier work
# [11] = ligand alone titrated into PdxI
# [12] = ligand alone titrated into PdxI (binary complex)
# [13] = ligand alone titrated into PdxI, 20°C, pH 7.4, NB = non-binding ligand
# [14] = medium supplemented with 1.5 mM PL
# [15] = PL added to pre-incubated mixture of PdxI and NADPH (ternary complex)
# [16] = medium supplemented with 0.1 mM PN
structure (smiles),measurement,setting,value
NC(=O)C1=CN([C@@H]2O[C@H](COP(=O)(O)OP(=O)(O)OC[C@H]3O[C@@H](n4cnc5c(N)ncnc54)[C@H](O)[C@@H]3O)[C@@H](O)[C@H]2O)C=CC1 [NADH],reaction rate with PL and NADH relative to that with NADPH,"E. coli PdxI [1]; 200 μM PL, 400 μM dinucleotide",10 times slower
same,effect on thermal stability (Tm) when added alone,E. coli PdxI [2],no effect
"NC(=O)C1=CN([C@@H]2O[C@H](COP(=O)(O)OP(=O)(O)OC[C@H]3O[C@@H](n4cnc5c(N)ncnc54)[C@H](OP(=O)(O)O)[C@@H]3O)[C@@H](O)[C@H]2O)C=CC1 [NADPH, reduced nicotinamide adenine dinucleotide phosphate]",Km,"E. coli PdxI [3]; PL reduction to PN by NADPH, 37 °C, 20 mM KPi pH 7.3, 0.05 μM PdxI",12 ± 4 µM
same,N value,E. coli PdxI [4]; [11],1.13 ± 0.05
same,ΔH,E. coli PdxI [4]; [12],-2.964 ± 0.0335 kcal/mol
same,ΔS,E. coli PdxI [4]; [12],−18 ± 1 J mol^−1/deg
same,Kd,E. coli PdxI [4]; [13],4.2 ± 0.35 µM
same,increase of thermal stability,E. coli PdxI [2],up to 9 °C
same,Kd,E. coli PdxI [2],81 ± 16 µM
"NC(=O)c1ccc[n+]([C@@H]2O[C@H](COP(=O)([O-])OP(=O)(O)OC[C@H]3O[C@@H](n4cnc5c(N)ncnc54)[C@H](OP(=O)(O)O)[C@@H]3O)[C@@H](O)[C@H]2O)c1 [NADP^+, oxidised nicotinamide adenine dinucleotide phosphate]",type of product inhibition with respect to NADPH,E. coli PdxI [3],competitive inhibitor
same,N value,E. coli PdxI [4]; [11],0.99 ± 0.09
same,ΔH,E. coli PdxI [4]; [12],-5.16 ± 0.134 kcal/mol
same,ΔS,E. coli PdxI [4]; [12],−54 ± 2 J mol^−1/deg
same,Kd,E. coli PdxI [4]; [13],46.3 ± 1.97 µM
same,increase of thermal stability,E. coli PdxI [2],up to 9 °C
same,Kd,E. coli PdxI [2],856 ± 490 µM
NC(=O)c1ccc[n+]([C@@H]2O[C@H](COP(=O)([O-])OP(=O)(O)OC[C@H]3O[C@@H](n4cnc5c(N)ncnc54)[C@H](O)[C@@H]3O)[C@@H](O)[C@H]2O)c1 [NAD^+],effect on thermal stability (Tm) when added alone,E. coli PdxI [2],no effect
"Cc1ncc(CO)c(C=O)c1O [PL, pyridoxal]",concentration at which PL toxicity is observed,[5],≥ 1400 µM
same,increase of PL levels,[6]; [14],about 3400 fold
same,Expression level of pdxB,E. coli BW25113 cells,97%
same,Expression level of pdxH,E. coli BW25113 cells,110%
same,Expression level of pdxJ,E. coli BW25113 cells,86%
same,Expression level of pdxK,E. coli BW25113 cells,105%
same,Expression level of pdxY,E. coli BW25113 cells,118%
same,Expression level of ybhA,E. coli BW25113 cells,110%
same,Expression level of pdxI,E. coli BW25113 cells,134% (*)
same,effect on growth,[7]; up to 0.1 mM in M9 medium,beneficial
same,effect on growth,[7]; up to 1 mM in M9 medium,abolish this beneficial effect
same,increase of PL levels,[8]; [14],about 800 fold
same,PL converted into PN at equilibrium,"E. coli PdxI [1]; 200 μM PL, 400 μM NADH, 0.2 μM PdxI",98.3 ± 2.6%
same,PL converted into PN at equilibrium,"E. coli PdxI [1]; 200 μM PL, 400 μM NADPH, 0.2 μM PdxI",96 ± 1.7%
same,kcat of PdxK,PdxK; PL as substrate,2.3 s⁻¹
same,Km,PdxK; read-out: KM for PL of PdxK,100 µM
same,Kd,E. coli PdxI [4],0.024 ± 0.01 µM
same,N value,E. coli PdxI [4]; PL added to pre-incubated 1:1 mixture of PdxI and NADPH,0.61 and 0.61 ± 0.02
same,ΔH,E. coli PdxI [4]; [15],-0.884 ± 0.0359 kcal/mol
same,ΔS,E. coli PdxI [4]; [15],22 ± 1 J mol^−1/deg
same,further change of Tm on adding vitamer to pre-incubated PdxI and dinucleotide,E. coli PdxI [2],did not further increase Tm
same,effect on thermal stability (Tm) when added alone,E. coli PdxI [2],no effect
same,effect on bacterial growth,[9]; 1 mM in M9 medium,toxicity
same,effect on bacterial growth,[9]; 2 mM in M9 medium,nearly arrested
same,beneficial effect of low concentrations on growth,[9],not visible
"Cc1ncc(COP(=O)(O)O)c(C=O)c1O [PLP, Pyridoxal 5’-phosphate]",activity of PdxI with the substrate,E. coli PdxI [10],no detectable activity
same,conversion of PLP into PNP,"E. coli PdxI [1]; 200 μM PLP, 400 μM NADPH, 0.2 μM PdxI",apparently complete
same,Km,E. coli PdxI [3]; PLP reduction to PNP by NADPH,> 1200 µM
same,effect on thermal stability (Tm) when added alone,E. coli PdxI [2],no effect
"Cc1ncc(CO)c(CN)c1O [PM, pyridoxamine]",activity of PdxI with the substrate,E. coli PdxI [10],no detectable activity
same,conversion of PM to PL,E. coli PdxI [1]; NADP+ as electron acceptor,could not be detected
"Cc1ncc(CO)c(CO)c1O [PN, pyridoxine]",rise of PLP levels,[6]; [16],1.8 fold
same,Expression level of pdxB,E. coli BW25113 cells,103%
same,Expression level of pdxH,E. coli BW25113 cells,95%
same,Expression level of pdxJ,E. coli BW25113 cells,88%
same,Expression level of pdxK,E. coli BW25113 cells,107%
same,Expression level of pdxY,E. coli BW25113 cells,115%
same,Expression level of ybhA,E. coli BW25113 cells,108%
same,Expression level of pdxI,E. coli BW25113 cells,98%
same,effect on growth,[7]; up to 1 mM in M9 medium,beneficial effect
same,rise of PLP levels,[8]; [16],1.5 fold
same,PN converted to PL (reverse reaction),"E. coli PdxI [1]; 200 μM PN, 400 μM NADP+, 1 μM PdxI",5 ± 1.3%
same,type of product inhibition with respect to NADPH,E. coli PdxI [3],mixed inhibition
same,further change of Tm on adding vitamer to pre-incubated PdxI and dinucleotide,E. coli PdxI [2],did not further increase Tm
same,effect on thermal stability (Tm) when added alone,E. coli PdxI [2],no effect
same,beneficial effect of low concentrations on growth,[9],not visible
